# Target: T1, autotaxin (ATX) (Homo sapiens, UniProt Q13822)
# T1 construct: conditioned medium from the human melanoma cell line, MDA-MB-4355, which endogenously expresses autotaxin; host or cells: MDA-MB-435S human melanoma cells; serum-free conditioned medium, concentrated 20-fold
# Test: Native Autotaxin Choline Release Assay
# Assay type: biochemical
# Settings: autotaxin in conditioned medium from human melanoma cell line; choline released from LPC; read-out: MDA-MB-435S Assay IC50
# Description: ATX activity is determined by measuring the amount of choline realeased from the substrate, lyosphophatidylcholine (LPC). […] After reaching confluency, the cells are washed twice with phosphate-buffered saline (PBS) then cultured for 48 hours in phenol-red free, serum-free DMEM containing sodium pyruvate. […] 100 μl of a color mix which contains 4.5 mM 4-aminoantipyrine, 2.7 mM N-ethyl-N-(2-hydroxy-3-sulfopropyl)-m-toluidine, 21 units/ml horseradish peroxidase and 3 units/ml choline oxidase in 50 mM Tris, pH 8, 4.5 mM MgCl2 is added and the incubation continued at 37° C. for 10 minutes before reading the absorbance at 555 nm. The concentration of released choline in the sample is determined from a choline standard curve and is equal to the concentration of LPA produced.
row,IC50,SMILES
1,> 1000 nM,"Cc1[nH]c2cc(Cl)ccc2c1Sc1ccccc1CC(=O)O [Compound 3-1, [2-(6-Chloro-2-methyl-1H-indol-3-ylsulfanyl)-phenyl]-acetic acid]"
2,< 300 nM,"CCn1cc(-n2c(C)c(Sc3cccc(C(=O)NS(=O)(=O)c4ccccc4)c3)c3ccc(Cl)c(F)c32)cn1 [Compound 3-42, N-{3-[6-Chloro-1-(1-ethyl-1H-pyrazol-4-yl)-7-fluoro-2-methyl-1H-indol-3-ylsulfanyl]-benzoyl}-benzenesulfonamide]"
3,> 1000 nM,"Cc1c(Sc2cccc(CC(=O)O)c2)c2ccccc2n1C [Compound 1-4, [3-(1,2-Dimethyl-1H-indol-3-ylsulfanyl)-phenyl]-acetic acid]"
4,> 1000 nM,"Cc1c(Sc2cccc(Cc3nn[nH]n3)c2)c2ccc(Cl)cc2n1Cc1ccccc1 [Compound 2-8, 1-Benzyl-6-chloro-2-methyl-3-[3-(2H-tetrazol-5-ylmethyl)-phenylsulfanyl]-1H-indole]"
5,< 300 nM,"CCCn1cc(-n2c(C)c(Sc3cccc(C(=O)O)c3)c3ccc(Cl)c(F)c32)cn1 [Compound 3-24, 3-[6-Chloro-7-fluoro-2-methyl-1-(1-propyl-1H-pyrazol-4-yl)-1H-indol-3-ylsulfanyl]-benzoic acid]"
6,< 300 nM,"CCCn1cc(-n2c(C)c(Sc3cccc(C(=O)O)c3F)c3ccc(Cl)cc32)cn1 [Compound 1-131, 3-[6-Chloro-2-methyl-1-(1-propyl-1H-pyrazol-4-yl)-1H-indol-3-ylsulfanyl]-2-fluoro-benzoic acid]"
7,< 300 nM,"CCCn1cc(-n2c(C)c(Sc3cccc(CC(=O)NS(=O)(=O)C4CC4)c3)c3ccc(Cl)cc32)cn1 [Compound 3-54, cyclopropanesulfonic acid (2-{3-[6-chloro-2-methyl-1-(1-propyl-1H-pyrazol-4-yl)-1H-indol-3-ylsulfanyl]-phenyl}-acetyl)-amide]"
8,< 300 nM,"Cc1c(Sc2cccc(C(=O)O)c2)c2ccc(Cl)c(F)c2n1-c1cnn(-c2ccccc2)c1 [Compound 3-23, 3-[6-Chloro-7-fluoro-2-methyl-1-(1-phenyl-1H-pyrazol-4-yl)-1H-indol-3-ylsulfanyl]-benzoic acid]"
9,< 300 nM,"Cc1c(Sc2cccc(CC(=O)O)c2)c2ccc(Cl)cc2n1-c1cccnc1 [Compound 1-35, [3-(6-Chloro-2-methyl-1-pyridin-3-yl-1H-indol-3-ylsulfanyl)-phenyl]-acetic acid]"
10,> 1000 nM,"Cc1c(Sc2cccc(/C=C/C(=O)O)c2)c2ccc(Cl)cc2n1Cc1ccccc1 [Compound 2-7, (E)-3-[3-(1-Benzyl-6-chloro-2-methyl-1H-indol-3-ylsulfanyl)-phenyl]-acrylic acid]"
11,> 1000 nM,"Cc1c(Sc2cccc(C(=O)O)c2)c2ccc(Cl)cc2n1Cc1ccc2ccccc2c1 [Compound 1-20, 3-(6-Chloro-2-methyl-1-naphthalen-2-ylmethyl-1H-indol-3-ylsulfanyl)-benzoic acid]"
12,> 1000 nM,"Cc1c(Sc2cccc(CC(=O)O)c2)c2ccccc2n1Cc1ccccc1 [Compound 1-9, [3-(1-Benzyl-2-methyl-1H-indol-3-ylsulfanyl)-phenyl]-acetic acid]"
13,> 1000 nM,"Cc1c(Sc2cccc(B(O)O)c2)c2ccc(Cl)cc2n1-c1cccnc1 [Compound 2-12, 3-(6-Chloro-2-methyl-1-pyridin-3-yl-1H-indol-3-ylsulfanyl)-phenylboronic acid]"
14,< 300 nM,"Cc1c(Sc2cccc(C(=O)O)c2)c2ccc(Cl)c(F)c2n1-c1cn[nH]c1 [Compound 3-49, 3-[6-Chloro-7-fluoro-2-methyl-1-(1H-pyrazol-4-yl)-1H-indol-3-ylsulfanyl]-benzoic acid]"
15,< 300 nM,"Cc1c(Sc2cccc(C(=O)O)c2)c2ccc(Cl)cc2n1Cc1cccnc1 [Compound 1-21, 3-(6-Chloro-2-methyl-1-pyridin-3-ylmethyl-1H-indol-3-ylsulfanyl)-benzoic acid]"
16,< 300 nM,"Cc1c(Sc2cccc(C(C)C(=O)O)c2)c2ccc(Cl)cc2n1-c1cccnc1 (stereo not shown) [Compound 3-20, 2-[3-(6-Chloro-2-methyl-1-pyridin-3-yl-1H-indol-3-ylsulfanyl)-phenyl]-propionic acid]"
17,< 300 nM,"Cc1c(Sc2cccc(C(=O)O)c2)c2ccc(Cl)cc2n1-c1cnsc1 [Compound 1-42, 3-(6-Chloro-1-isothiazol-4-yl-2-methyl-1H-indol-3-ylsulfanyl)-benzoic acid]"
18,< 300 nM,"Cc1c(Sc2cccc(C(=O)O)c2)c2ccc(Cl)c(F)c2n1-c1cnn(C)c1 [Compound 3-57, 3-[6-Chloro-7-fluoro-2-methyl-1-(1-methyl-1H-pyrazol-4-yl)-1H-indol-3-ylsulfanyl]-benzoic acid]"
19,> 1000 nM,"COc1ccc2c(Sc3cccc(CC(=O)O)c3)c(C)[nH]c2c1 [Compound 1-3, [3-(6-Methoxy-2-methyl-1H-indol-3-ylsulfanyl)-phenyl]-acetic acid]"

row,IC50,SMILES
1,< 300 nM,"CCn1cc(-n2c(C)c(Sc3ccc(CC(=O)O)cc3)c3ccc(Cl)cc32)cn1 [Compound 3-30, {4-[6-Chloro-1-(1-ethyl-1H-pyrazol-4-yl)-2-methyl-1H-indol-3-ylsulfanyl]-phenyl}-acetic acid]"
2,< 300 nM,"CCn1cc(-n2c(C)c(Sc3cccc(CC(=O)O)c3)c3ccc(Cl)cc32)cn1 [Compound 1-69, {3-[6-Chloro-1-(1-ethyl-1H-pyrazol-4-yl)-2-methyl-1H-indol-3-ylsulfanyl]-phenyl}-acetic acid]"
3,< 300 nM,"Cc1c(Sc2cccc(CC(=O)O)c2)c2ccc(Cl)cc2n1-c1cnn(C)c1 [Compound 1-45, {3-[6-Chloro-2-methyl-1-(1-methyl-1H-pyrazol-4-yl)-1H-indol-3-ylsulfanyl]-phenyl}-acetic acid]"
4,300 to 1000 nM,"Cc1c(Sc2cccc(C(=O)O)c2)c2ccc(Cl)cc2n1-c1ccc(-c2ccccc2)cc1 [Compound 1-27, 3-(1-Biphenyl-4-yl-6-chloro-2-methyl-1H-indol-3-ylsulfanyl)-benzoic acid]"
5,> 1000 nM,"CCn1cc(-n2c(C)c(Sc3cc(Br)cc(C(=O)O)c3)c3ccc(Cl)cc32)cn1 [Compound 1-51, 3-Bromo-5-[6-chloro-1-(1-ethyl-1H-pyrazol-4-yl)-2-methyl-1H-indol-3-ylsulfanyl]-benzoic acid]"
6,< 300 nM,"CCn1cc(-n2c(C)c(Sc3cccc(C(=O)O)c3)c3ccc(C#N)cc32)cn1 [Compound 3-31, 3-[6-Cyano-1-(1-ethyl-1H-pyrazol-4-yl)-2-methyl-1H-indol-3-ylsulfanyl]-benzoic acid]"
7,< 300 nM,"Cc1c(Sc2cccc(C(=O)O)c2)c2ccc(Cl)cc2n1-c1cnn(CC(F)(F)F)c1 [Compound 1-55, 3-{6-Chloro-2-methyl-1-[1-(2,2,2-trifluoro-ethyl)-1H-pyrazol-4-yl]-1H-indol-3-ylsulfanyl}-benzoic acid]"
8,< 300 nM,"Cc1c(Sc2cccc(C(=O)O)c2)c2ccc(Cl)c(F)c2n1-c1cnn(-c2cccc(Cl)c2)c1 [Compound 3-33, 3-{6-Chloro-1-[1-(3-chloro-phenyl)-1H-pyrazol-4-yl]-7-fluoro-2-methyl-1H-indol-3-ylsulfanyl}-benzoic acid]"
9,> 1000 nM,"Cc1[nH]c2ccccc2c1Sc1cccc(CC(=O)O)c1 [Compound 1-1, [3-(2-Methyl-1H-indol-3-ylsulfanyl)-phenyl]-acetic acid]"
10,< 300 nM,"Cc1ccc(-n2cc(-n3c(C)c(Sc4cccc(C(=O)O)c4)c4ccc(Cl)c(F)c43)cn2)cc1 [Compound 3-32, 3-[6-Chloro-7-fluoro-2-methyl-1-(1-p-tolyl-1H-pyrazol-4-yl)-1H-indol-3-ylsulfanyl]-benzoic acid]"
11,> 1000 nM,"COc1ccc(C(=O)O)cc1Sc1c(C)n(-c2cccnc2)c2cc(Cl)ccc12 [Compound 1-40, 3-(6-Chloro-2-methyl-1-pyridin-3-yl-1H-indol-3-ylsulfanyl)-4-methoxy-benzoic acid]"
12,< 300 nM,"Cc1c(Sc2cccc(C(=O)O)c2)c2ccc(Cl)c(F)c2n1-c1cnn(C2CCCC2)c1 [Compound 3-35, 3-[6-Chloro-1-(1-cyclopentyl-1H-pyrazol-4-yl)-7-fluoro-2-methyl-1H-indol-3-ylsulfanyl]-benzoic acid]"
13,< 300 nM,"CCn1cc(-n2c(C)c(Sc3cccc(C(=O)O)c3)c3ccc(Cl)c(F)c32)cn1 [Compound 3-16, 3-[6-Chloro-1-(1-ethyl-1H-pyrazol-4-yl)-7-fluoro-2-methyl-1H-indol-3-ylsulfanyl]-benzoic acid]"
14,300 to 1000 nM,"Cc1ccc(-n2c(C)c(Sc3cccc(C(=O)O)c3)c3ccc(Cl)cc32)nn1 [Compound 1-68, 3-[6-Chloro-2-methyl-1-(6-methyl-pyridazin-3-yl)-1H-indol-3-ylsulfanyl]-benzoic acid]"
15,300 to 1000 nM,"Cc1ccc(-n2c(C)c(Sc3cccc(C(=O)O)c3)c3ccc(Cl)c(F)c32)s1 [Compound 3-62, 3-[6-Chloro-7-fluoro-2-methyl-1-(5-methyl-thiophen-2-yl)-1H-indol-3-ylsulfanyl]-benzoic acid]"
16,> 1000 nM,"Cc1[nH]c2cc(F)ccc2c1Sc1cccc(CC(=O)O)c1 [Compound 1-2, [3-(6-Fluoro-2-methyl-1H-indol-3-ylsulfanyl)-phenyl]-acetic acid]"
17,< 300 nM,"CCn1cc(-n2c(C)c(Sc3cccc(C4(C(=O)O)CC4)c3)c3ccc(Cl)cc32)cn1 [Compound 1-74, 1-{3-[6-Chloro-1-(1-ethyl-1H-pyrazol-4-yl)-2-methyl-1H-indol-3-ylsulfanyl]-phenyl}-cyclopropanecarboxylic acid]"
18,< 300 nM,"CCn1cc(-n2c(C)c(Sc3cccc(C(=O)NS(=O)(=O)C4CC4)c3)c3ccc(Cl)c(F)c32)cn1 [Compound 3-51, cyclopropanesulfonic acid 3-[6-chloro-1-(1-ethyl-1H-pyrazol-4-yl)-7-fluoro-2-methyl-1H-indol-3-ylsulfanyl]-benzoylamide]"

# From patent publication US9000025B2, “Autotaxin inhibitors and uses thereof” (Amira Pharmaceuticals, Inc., priority 2010, dated 2015)
